{"source": "patent US7576175B2", "about": "“Alpha-4 beta-1 integrin ligands for imaging and therapy” (The Regents of the University of California, priority 2004, dated 2009)", "note": "Numbered stars: 1 amine (or outer) side, 2 acyl side, 3 side chain; on linkers, the order of the positions; unused ones are H or OH. Square brackets hold non-standard residues; d marks the D form. Peptide text beside a SMILES is read from it. * marks the point of attachment. Acryloyl(3-(3-pyridyl),E) = O=C(/C=C/c1cccnc1)*; dBpa = N[C@H](Cc1ccc(C(=O)c2ccccc2)cc1)C(=O)O; d2Nal = N[C@H](Cc1ccc2ccccc2c1)C(=O)O; Ala(cPr) = N[C@@H](CC1CC1)C(=O)O; Hyp = O=C(O)[C@@H]1C[C@@H](O)CN1; X1 = O=C(Cc1ccc(N[*:1])cc1)[*:2]; d3Pal = N[C@H](Cc1cccnc1)C(=O)O; Aad = N[C@@H](CCCC(=O)O)C(=O)O; Cha = N[C@@H](CC1CCCCC1)C(=O)O; NH(2-Me-phenyl) = Cc1ccccc1N*; Chg = N[C@H](C(=O)O)C1CCCCC1; Nle = CCCC[C@H](N)C(=O)O; Ac5c = NC1(C(=O)O)CCCC1; Ac3c = NC1(C(=O)O)CC1; CO = O=C([*:1])[*:2]"}
{"molecular_target": "T1, α4β1 integrin (Homo sapiens, UniProt P05556+P13612)", "T1 construct": "screened against live Jurkat cells (α4β1 integrin-positive); endogenous in cells; host or cells: Jurkat T-leukemia cells", "T1 sequence (P13612 34-1032)": "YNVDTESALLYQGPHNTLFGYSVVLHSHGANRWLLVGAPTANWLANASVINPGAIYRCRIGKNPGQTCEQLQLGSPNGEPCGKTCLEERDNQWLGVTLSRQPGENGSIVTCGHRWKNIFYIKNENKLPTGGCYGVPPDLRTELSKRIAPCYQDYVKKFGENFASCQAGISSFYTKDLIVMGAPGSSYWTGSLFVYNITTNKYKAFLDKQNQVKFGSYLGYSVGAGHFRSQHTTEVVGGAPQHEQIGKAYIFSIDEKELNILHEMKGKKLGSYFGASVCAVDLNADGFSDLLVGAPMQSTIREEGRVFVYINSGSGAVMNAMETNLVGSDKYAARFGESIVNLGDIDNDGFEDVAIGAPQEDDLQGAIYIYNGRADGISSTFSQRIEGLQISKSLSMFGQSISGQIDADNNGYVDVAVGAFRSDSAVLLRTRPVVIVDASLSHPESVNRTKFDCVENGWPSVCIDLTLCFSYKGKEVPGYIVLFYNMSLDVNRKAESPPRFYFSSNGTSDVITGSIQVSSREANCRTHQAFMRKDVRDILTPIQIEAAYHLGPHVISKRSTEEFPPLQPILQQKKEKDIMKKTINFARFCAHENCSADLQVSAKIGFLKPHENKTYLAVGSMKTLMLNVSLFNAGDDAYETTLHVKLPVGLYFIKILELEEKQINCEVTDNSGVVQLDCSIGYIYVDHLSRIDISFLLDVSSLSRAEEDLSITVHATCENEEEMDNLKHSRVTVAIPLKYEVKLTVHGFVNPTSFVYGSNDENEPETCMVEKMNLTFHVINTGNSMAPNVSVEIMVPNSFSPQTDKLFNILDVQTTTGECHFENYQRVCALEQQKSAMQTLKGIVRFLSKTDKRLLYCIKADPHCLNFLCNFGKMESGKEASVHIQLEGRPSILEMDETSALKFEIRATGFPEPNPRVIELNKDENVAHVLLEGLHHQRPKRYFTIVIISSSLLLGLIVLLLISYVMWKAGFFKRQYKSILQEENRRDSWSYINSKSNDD", "T1 sequence (P05556 21-798)": "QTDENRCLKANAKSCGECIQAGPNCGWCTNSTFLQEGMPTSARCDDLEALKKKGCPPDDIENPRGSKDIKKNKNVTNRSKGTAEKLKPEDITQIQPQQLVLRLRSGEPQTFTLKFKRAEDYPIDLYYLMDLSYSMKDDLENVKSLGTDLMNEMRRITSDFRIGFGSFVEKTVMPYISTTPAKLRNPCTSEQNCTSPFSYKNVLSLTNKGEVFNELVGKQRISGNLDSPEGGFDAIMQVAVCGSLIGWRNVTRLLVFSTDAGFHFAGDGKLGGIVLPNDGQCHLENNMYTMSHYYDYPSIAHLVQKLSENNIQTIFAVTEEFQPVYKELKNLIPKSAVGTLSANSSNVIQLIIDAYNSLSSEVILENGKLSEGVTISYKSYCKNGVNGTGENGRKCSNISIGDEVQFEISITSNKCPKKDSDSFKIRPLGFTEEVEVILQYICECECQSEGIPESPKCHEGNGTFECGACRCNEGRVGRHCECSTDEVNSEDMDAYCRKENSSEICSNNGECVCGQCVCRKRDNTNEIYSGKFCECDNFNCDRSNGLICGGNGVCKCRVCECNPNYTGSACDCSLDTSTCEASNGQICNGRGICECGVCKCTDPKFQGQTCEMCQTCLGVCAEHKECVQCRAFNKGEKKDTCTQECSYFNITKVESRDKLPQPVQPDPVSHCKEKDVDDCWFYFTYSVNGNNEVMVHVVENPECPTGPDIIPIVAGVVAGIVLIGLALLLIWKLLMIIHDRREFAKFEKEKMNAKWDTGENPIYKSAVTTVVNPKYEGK", "assay": "Cell-based α4β1-mediated adhesion assay: inhibition of Jurkat cell adhesion to immobilized CS-1 peptide (IC50)", "settings": "not given", "units": {"IC50": "nM"}}
{"compound": "Cc1ccccc1NC(=O)Nc1ccc(CC(=O)N[C@@H](CC2CC2)C(=O)N[C@@H](CCCC(=O)O)C(=O)N[C@H](C(=O)NC2(C(=O)N[C@H](CC(=O)O)C(=O)N[C@H](CCC(=O)O)C(N)=O)CCCC2)C2CCCCC2)cc1", "note": "[10A] ({NH(2-Me-phenyl)-CO}-[X1][Ala(cPr)][Aad][Chg][Ac5c][dD][dE]-NH2)", "IC50": 0.53}
{"compound": "Cc1ccccc1NC(=O)Nc1ccc(CC(=O)N[C@@H](CCCCNC(=O)/C=C/c2cccnc2)C(=O)N[C@@H](CCCC(=O)O)C(=O)N[C@H](Cc2ccc3ccccc3c2)C(=O)N[C@@H](C(=O)N[C@H](Cc2ccc(C(=O)c3ccccc3)cc2)C(N)=O)[C@H](C)O)cc1", "note": "[11A] ({NH(2-Me-phenyl)-CO}-[X1]K(Acryloyl(3-(3-pyridyl),E))[Aad][d2Nal][dT][dBpa]-NH2)", "IC50": 77.5}
{"compound": "Cc1ccccc1NC(=O)Nc1ccc(CC(=O)N[C@@H](CCCCNC(=O)/C=C/c2cccnc2)C(=O)N[C@@H](CCCC(=O)O)C(=O)NC2(C(=O)N[C@H](CC(=O)O)C(N)=O)CC2)cc1", "note": "[3A] ({NH(2-Me-phenyl)-CO}-[X1]K(Acryloyl(3-(3-pyridyl),E))[Aad][Ac3c][dD]-NH2)", "IC50": 0.5}
{"compound": "Cc1ccccc1NC(=O)Nc1ccc(CC(=O)N[C@@H](CCCCNC(=O)/C=C/c2cccnc2)C(=O)N[C@@H](CCCC(=O)O)C(=O)N[C@H](Cc2ccccc2)C(=O)N[C@H](Cc2cccnc2)C(N)=O)cc1", "note": "[7A] ({NH(2-Me-phenyl)-CO}-[X1]K(Acryloyl(3-(3-pyridyl),E))[Aad][dF][d3Pal]-NH2)", "IC50": 4}
{"compound": "CCCC[C@H](NC(=O)Cc1ccc(NC(=O)Nc2ccccc2C)cc1)C(=O)N[C@@H](CCCC(=O)O)C(=O)N[C@@H](CC1CCCCC1)C(=O)N[C@H](CCC(=O)O)C(N)=O", "note": "[8A] ({NH(2-Me-phenyl)-CO}-[X1][Nle][Aad][Cha][dE]-NH2)", "IC50": 0.75}
{"compound": "Cc1ccccc1NC(=O)Nc1ccc(CC(=O)N[C@@H](CCCCNC(=O)/C=C/c2cccnc2)C(=O)N[C@@H](CCCC(=O)O)C(=O)N[C@H](Cc2ccccc2)C(=O)N[C@H](CC(=O)O)C(N)=O)cc1", "note": "[4A] ({NH(2-Me-phenyl)-CO}-[X1]K(Acryloyl(3-(3-pyridyl),E))[Aad][dF][dD]-NH2)", "IC50": 0.4}
{"compound": "Cc1ccccc1NC(=O)Nc1ccc(CC(=O)N[C@@H](CCCCNC(=O)/C=C/c2cccnc2)C(=O)N[C@@H](CCCC(=O)O)C(=O)N[C@@H](Cc2ccccc2)C(N)=O)cc1", "note": "[14A]", "IC50": 0.2}
{"compound": "CCCC[C@H](NC(=O)Cc1ccc(NC(=O)Nc2ccccc2C)cc1)C(=O)N[C@@H](CCCC(=O)O)C(=O)N[C@H](C(=O)N1C[C@H](O)C[C@H]1C(=O)N[C@@H](CCCC(=O)O)C(N)=O)C1CCCCC1", "note": "[9A] ({NH(2-Me-phenyl)-CO}-[X1][Nle][Aad][Chg][Hyp][Aad]-NH2)", "IC50": 1.45}
{"molecular_target": "T1, α4β1 integrin", "assay": "Cell-based α4β1-mediated adhesion assay: inhibition of Jurkat cell adhesion to immobilized CS-1 peptide (IC50)", "settings": "Jurkat cell adhesion to CS-1 peptide; re-synthesized ligands of Tables 18 and 19; read-out: IC50", "units": {"IC50": "nM"}}
{"compound": "Cc1ccccc1NC(=O)Nc1ccc(CC(=O)N[C@@H](CCCCNC(=O)/C=C/c2cccnc2)C(=O)N[C@@H](CCCC(=O)O)C(=O)N[C@H](Cc2ccccc2)C(=O)O)cc1", "note": "[12A]", "IC50": 0.4}
{"compound": "Cc1ccccc1NC(=O)Nc1ccc(CC(=O)N[C@@H](CCCCNC(=O)/C=C/c2cccnc2)C(=O)N[C@@H](CCCC(=O)O)C(=O)N[C@@H](C(N)=O)C(C)C)cc1", "note": "[16A]", "IC50": 0.2}
{"compound": "Cc1ccccc1NC(=O)Nc1ccc(C(C)C(=O)N[C@@H](CCCCNC(=O)/C=C/c2cccnc2)C(=O)N[C@@H](CCCC(=O)O)C(=O)N[C@H](Cc2ccccc2)C(N)=O)cc1", "note": "(stereo partly drawn) [1B]", "IC50": 8.9}
{"compound": "Cc1ccccc1NC(=O)Nc1ccc(CC(=O)N[C@@H](CCCCNC(=O)/C=C/c2cccnc2)C(=O)N[C@@H](CCCC(=O)O)C(=O)N[C@H](C(N)=O)C(C)C)cc1", "note": "[15A]", "IC50": 0.2}
{"compound": "Cc1ccccc1NC(=O)Nc1ccc(C(C)C(=O)N[C@@H](CCCCNC(=O)/C=C/c2cccnc2)C(=O)N[C@@H](CCCC(=O)O)C(=O)NC2(C(N)=O)CCCCC2)cc1", "note": "(stereo partly drawn) [2B]", "IC50": 9.5}
{"compound": "Cc1ccccc1NC(=O)Nc1ccc(CC(=O)N[C@@H](CCCCNC(=O)/C=C/c2cccnc2)C(=O)N[C@@H](CCCC(=O)O)C(=O)N[C@H](Cc2ccccc2)C(N)=O)cc1", "note": "[1A]", "IC50": 0.022}
{"molecular_target": "T1, α4β1 integrin", "assay": "Bead-binding inhibition assay: soluble ligand inhibits binding of Jurkat cells to BIO-1211-containing beads", "assay_type": "cell-based", "settings": "overnight incubation, FIG. 7", "text": "(§1) To this end, the bead library was screened using Jurkat cells in the presence of BIO-1211.\n(§2) This library was screened using a competitive cell-based screening method with high stringency so that only those ligands with very high affinity to α4β1 integrin are coated by a layer of lymphoma cells (FIG. 2). To achieve this, an increasing amount of known α4β1 antagonist was incorporated into the screening solution, which competed with the interaction between cell surface α4β1 integrin and the immobilized library compounds on the bead surface, until a limited number of positive beads were detected in the library. […] Twenty beads were isolated under these high stringency conditions. Guanidine HCl (8 M) was used to strip the beads of all cells and proteins. The recovered beads were then retested with normal peripheral blood lymphocytes. Beads that bound preferentially to Jurkat cells but not to normal lymphocytes were sequenced. A total of twelve true positive beads were isolated and decoded, which represented 6 independent ligands. All of the identified ligands have the following structure:\n(§3) The bead-binding inhibition assay was performed using the soluble ligand to inhibit the binding of Jurkat cells to the BIO-1211-containing beads."}
{"compound": "Cc1ccccc1NC(=O)Nc1ccc(CC(=O)N[C@@H](CCCCNC(=O)/C=C/c2cccnc2)C(=O)N[C@@H](CCCC(=O)O)C(=O)N[C@H](Cc2ccccc2)C(=O)N[C@H](CC(=O)O)C(N)=O)cc1", "note": "[4A] ({NH(2-Me-phenyl)-CO}-[X1]K(Acryloyl(3-(3-pyridyl),E))[Aad][dF][dD]-NH2)", "concentration inhibiting binding of Jurkat cells to BIO-1211-containing beads, compared with BIO-1211": "significantly lower concentration than BIO-1211"}
{"molecular_target": "T1, α4β1 integrin", "assay": "Bead-binding inhibition assay: soluble ligand inhibits binding of Jurkat cells to BIO-1211-containing beads", "assay_type": "cell-based", "settings": "soluble ligand vs BIO-1211-containing beads, Jurkat cells", "text": "as §1, §2, §3"}
{"compound": "Cc1ccccc1NC(=O)Nc1ccc(CC(=O)N[C@@H](CCCCNC(=O)/C=C/c2cccnc2)C(=O)N[C@@H](CCCC(=O)O)C(=O)NC2(C(=O)N[C@H](CC(=O)O)C(N)=O)CC2)cc1", "note": "[3A] ({NH(2-Me-phenyl)-CO}-[X1]K(Acryloyl(3-(3-pyridyl),E))[Aad][Ac3c][dD]-NH2)", "binding affinity for α4β1 integrin in the bead-binding inhibition assay": "highest binding affinities"}
{"compound": "Cc1ccccc1NC(=O)Nc1ccc(CC(=O)N[C@@H](CCCCNC(=O)/C=C/c2cccnc2)C(=O)N[C@@H](CCCC(=O)O)C(=O)N[C@H](Cc2ccccc2)C(=O)N[C@H](CC(=O)O)C(N)=O)cc1", "note": "[4A] ({NH(2-Me-phenyl)-CO}-[X1]K(Acryloyl(3-(3-pyridyl),E))[Aad][dF][dD]-NH2)", "binding affinity for α4β1 integrin in the bead-binding inhibition assay": "highest binding affinities"}
{"compound": "Cc1ccccc1NC(=O)Nc1ccc(CC(=O)N[C@@H](CCCCNC(=O)/C=C/c2cccnc2)C(=O)N[C@@H](CCCC(=O)O)C(=O)NC2(C(N)=O)CCCCC2)cc1", "note": "[2A]", "binding affinity for α4β1 integrin in the bead-binding inhibition assay": "highest binding affinities"}
